Measured values reported in ChEMBL document CHEMBL4043145, “Pyridine-pyrimidine amides that prevent HGF-induced epithelial scattering by two distinct mechanisms” (Bioorg Med Chem Lett, 2017).

What was measured:
Format in all cases: functional
A2780 [1] = assay: Induction of apoptosis in human A2780 cells assessed as early apoptotic cells at 300 nM by 7-AAD/Annexin staining-based assay (reference value: 1.7 to 2.1%)
MFE-280 [2] = assay: Induction of apoptosis in human MFE280 cells assessed as viable cells at 100 nM by 7-AAD/Annexin staining-based assay (reference value: 84.9 to 87.7%); conditions: read-out: Activity
MFE-296 [3] = assay: Induction of apoptosis in human MFE296 cells assessed as nuclear debris at 100 nM by 7-AAD/Annexin staining-based assay (reference value: 0.4 to 0.8%)
PC-3 [4] = assay: Induction of apoptosis in human p53-null PC3 cells assessed as viable cells at 300 nM by 7-AAD/Annexin staining-based assay (reference value: 96.5 to 98.6%); conditions: read-out: Activity
MFE-296 [5] = assay: Induction of apoptosis in human MFE296 cells assessed as viable cells at 1000 nM by 7-AAD/Annexin staining-based assay (reference value: 90.9 to 94.4%); conditions: read-out: Activity
A2780 [6] = assay: Induction of apoptosis in human A2780 cells assessed as nuclear debris at 100 nM by 7-AAD/Annexin staining-based assay (reference value: 0.3 to 1.1%)
MFE-296 [7] = assay: Induction of apoptosis in human MFE296 cells assessed as late apoptotic cells at 1000 nM by 7-AAD/Annexin staining-based assay (reference value: 3.6 to 6.6%)
T47D [8] = assay: Induction of apoptosis in human T47D cells assessed as late apoptotic cells at 1000 nM by 7-AAD/Annexin staining-based assay (reference value: 3 to 13.4%)
PC-3 [9] = assay: Induction of apoptosis in human p53-null PC3 cells assessed as nuclear debris at 300 nM by 7-AAD/Annexin staining-based assay (reference value: 0.1 to 0.5%)
A2780 [10] = assay: Induction of apoptosis in human A2780 cells assessed as late apoptotic cells at 100 nM by 7-AAD/Annexin staining-based assay (reference value: 1.2 to 2.2%)
MCF7 [11] = assay: Induction of apoptosis in human MCF7 cells assessed as nuclear debris at 1000 nM by 7-AAD/Annexin staining-based assay (reference value: 0.2 to 3%)
T47D [12] = assay: Induction of apoptosis in human T47D cells assessed as early apoptotic cells at 100 nM by 7-AAD/Annexin staining-based assay (reference value: 1.6 to 4.3%)
A2780 [13] = assay: Induction of apoptosis in human A2780 cells assessed as late apoptotic cells at 1000 nM by 7-AAD/Annexin staining-based assay (reference value: 1.2 to 2.2%)
MFE-280 [14] = assay: Induction of apoptosis in human MFE280 cells assessed as nuclear debris at 100 nM by 7-AAD/Annexin staining-based assay (reference value: 0.5 to 2.3%)
MCF7 [15] = assay: Induction of apoptosis in human MCF7 cells assessed as viable cells at 300 nM by 7-AAD/Annexin staining-based assay (reference value: 92.6 to 96.8%); conditions: read-out: Activity
PC-3 [16] = assay: Induction of apoptosis in human p53-null PC3 cells assessed as nuclear debris at 100 nM by 7-AAD/Annexin staining-based assay (reference value: 0.1 to 0.5%)
A2780 [17] = assay: Induction of apoptosis in human A2780 cells assessed as viable cells at 1000 nM by 7-AAD/Annexin staining-based assay (reference value: 95 to 96.7%); conditions: read-out: Activity
MFE-280 [18] = assay: Induction of apoptosis in human MFE280 cells assessed as nuclear debris at 300 nM by 7-AAD/Annexin staining-based assay (reference value: 0.5 to 2.3%)
MFE-296 [19] = assay: Induction of apoptosis in human MFE296 cells assessed as viable cells at 300 nM by 7-AAD/Annexin staining-based assay (reference value: 90.9 to 94.4%); conditions: read-out: Activity
T47D [20] = assay: Induction of apoptosis in human T47D cells assessed as viable cells at 300 nM by 7-AAD/Annexin staining-based assay (reference value: 74.5 to 94.5%); conditions: read-out: Activity
MFE-280 [21] = assay: Induction of apoptosis in human MFE280 cells assessed as viable cells at 300 nM by 7-AAD/Annexin staining-based assay (reference value: 84.9 to 87.7%); conditions: read-out: Activity
T47D [22] = assay: Induction of apoptosis in human T47D cells assessed as viable cells at 100 nM by 7-AAD/Annexin staining-based assay (reference value: 74.5 to 94.5%); conditions: read-out: Activity
A2780 [23] = assay: Induction of apoptosis in human A2780 cells assessed as early apoptotic cells at 1000 nM by 7-AAD/Annexin staining-based assay (reference value: 1.7 to 2.1%)
MFE-296 [24] = assay: Induction of apoptosis in human MFE296 cells assessed as late apoptotic cells at 300 nM by 7-AAD/Annexin staining-based assay (reference value: 3.6 to 6.6%)
PC-3 [25] = assay: Induction of apoptosis in human p53-null PC3 cells assessed as late apoptotic cells at 300 nM by 7-AAD/Annexin staining-based assay (reference value: 0.4 to 1.6%)
MFE-296 [26] = assay: Induction of apoptosis in human MFE296 cells assessed as early apoptotic cells at 1000 nM by 7-AAD/Annexin staining-based assay (reference value: 1.5 to 2.1%)
MCF7 [27] = assay: Induction of apoptosis in human MCF7 cells assessed as late apoptotic cells at 300 nM by 7-AAD/Annexin staining-based assay (reference value: 1 to 2.1%)
MCF7 [28] = assay: Induction of apoptosis in human MCF7 cells assessed as early apoptotic cells at 300 nM by 7-AAD/Annexin staining-based assay (reference value: 2 to 2.7%)
T47D [29] = assay: Induction of apoptosis in human T47D cells assessed as viable cells at 1000 nM by 7-AAD/Annexin staining-based assay (reference value: 74.5 to 94.5%); conditions: read-out: Activity
PC-3 [30] = assay: Cell cycle arrest in human p53-null PC3 cells assessed as accumulation at S phase at 100 nM (reference value: 29.08 to 29.33%)
MFE-296 [31] = assay: Cell cycle arrest in human MFE296 cells assessed as accumulation at S phase at 300 nM (reference value: 16.96 to 19.19%)
T47D [32] = assay: Cell cycle arrest in human T47D cells assessed as accumulation at G2/M phase at 300 nM (reference value: 20.58 to 28.8%)
T47D [33] = assay: Cell cycle arrest in human T47D cells assessed as accumulation at G1 phase at 100 nM (reference value: 45.5 to 57.8%)
MFE-296 [34] = assay: Cell cycle arrest in human MFE296 cells assessed as accumulation at G1 phase at 100 nM (reference value: 61.05 to 64.87%)
MFE-296 [35] = assay: Cell cycle arrest in human MFE296 cells assessed as accumulation at G2/M phase at 300 nM (reference value: 15.71 to 17.04%)
A2780 [36] = assay: Cell cycle arrest in human A2780 cells assessed as accumulation at G2/M phase at 100 nM (reference value: 19.42 to 20.43%)

SMILES | Activity (A2780 [1]) [%] | viability at 0.1 µM (MFE-280 [2]) [%] | Activity (MFE-296 [3]) [%] | viability at 0.3 µM (PC-3 [4]) [%] | viability at 1 µM (MFE-296 [5]) [%] | Activity (A2780 [6]) [%] | Activity (MFE-296 [7]) [%] | Activity (T47D [8]) [%] | Activity (PC-3 [9]) [%] | Activity (A2780 [10]) [%] | Activity (MCF7 [11]) [%] | Activity (T47D [12]) [%] | Activity (A2780 [13]) [%] | Activity (MFE-280 [14]) [%] | viability at 0.3 µM (MCF7 [15]) [%] | Activity (PC-3 [16]) [%] | viability at 1 µM (A2780 [17]) [%] | Activity (MFE-280 [18]) [%] | viability at 0.3 µM (MFE-296 [19]) [%] | viability at 0.3 µM (T47D [20]) [%] | other results
CN[C@@H]1C[C@H]2O[C@@](C)([C@@H]1OC)n1c3ccccc3c3c4c(c5c6ccccc6n2c5c31)C(=O)NC4 [STAUROSPORINE] | 3.4 | 51.1 | 2.4 | 98.6 | 20.2 | 0.4 | 60.3 | 4.8 | 0.1 | 3.7 | 9.6 | 2.5 | 32.8 | 1.1 | 83.6 | 0.1 | 57.8 | 0.9 | 57.2 | 90.6 | viability at 0.3 µM (MFE-280 [21]): 57%; viability at 0.1 µM (T47D [22]): 95%; Activity (A2780 [23]): 5.1%; Activity (MFE-296 [24]): 24.4%; Activity (PC-3 [25]): 0.2%; Activity (MFE-296 [26]): 4.4%; Activity (MCF7 [27]): 7.9%; Activity (MCF7 [28]): 7.4%; viability at 1 µM (T47D [29]): 88.4%
O=C(Nc1ccc(-c2cccc(Cl)c2)cn1)c1cncnc1 | 3.5 | 86.2 | 1.3 | 98.2 | 84.3 | 0.5 | 9.1 | 4.5 | 0.2 | 3.2 | 0.3 | 5.1 | 4.1 | 0.6 | 92.4 | 0.1 | 90 | 0.7 | 86.5 | 86.5 | Activity (PC-3 [30]): 22.12%; Activity (MFE-296 [31]): 20.61%; Activity (T47D [32]): 22.28%; viability at 0.3 µM (MFE-280 [21]): 84.4%; Activity (T47D [33]): 54.23%; Activity (MFE-296 [34]): 53.3%; viability at 0.1 µM (T47D [22]): 92.4%; Activity (MFE-296 [35]): 55.89%; Activity (A2780 [23]): 4.5%; Activity (MFE-296 [24]): 8.2%; Activity (PC-3 [25]): 0.8%; Activity (MFE-296 [26]): 3.7%; Activity (MCF7 [27]): 3.1%; Activity (MCF7 [28]): 4.1%; viability at 1 µM (T47D [29]): 82.9%; Activity (A2780 [36]): 20.89%
